Laboratory results: the supplement of paper PMC10307832

What was measured:
Test in all cases: relative viability (nuclei count vs DMSO), 5 days (fraction); higher = more cells survive
MLN4924 + Pemetrexed = compound: NS(=O)(=O)OC[C@@H]1C[C@@H](n2ccc3c(N[C@H]4CCc5ccccc54)ncnc32)C[C@@H]1O [MLN4924] + Nc1nc2[nH]cc(CCc3ccc(C(=O)N[C@@H](CCC(=O)O)C(=O)O)cc3)c2c(=O)[nH]1 [Pemetrexed] (partner 0.2 µM)
In short: (§1)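 Relative viability divides the nuclei count in treated wells by that in vehicle wells. Lung cancer cell lines were seeded in 1536-well plates, dosed by pin tool the next day, and fixed and stained after 5 days in one step with final 0.05% Triton X-100, 1% formaldehyde and 1 ug/ml Hoechst. Dosing was a single drug or a fixed anchor-drug dose plus five library-drug doses (not always all listed) in √10 steps, and values are medians of duplicate plates imaged at 4×.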

MLN4924 + Navitoclax = compound: NS(=O)(=O)OC[C@@H]1C[C@@H](n2ccc3c(N[C@H]4CCc5ccccc54)ncnc32)C[C@@H]1O [MLN4924] + CC1(C)CCC(c2ccc(Cl)cc2)=C(CN2CCN(c3ccc(C(=O)NS(=O)(=O)c4ccc(N[C@H](CCN5CCOCC5)CSc5ccccc5)c(S(=O)(=O)C(F)(F)F)c4)cc3)CC2)C1 [Navitoclax] (partner 0.5 µM)
In short: as §1

MLN4924 + Foretinib = compound: NS(=O)(=O)OC[C@@H]1C[C@@H](n2ccc3c(N[C@H]4CCc5ccccc54)ncnc32)C[C@@H]1O [MLN4924] + COc1cc2c(Oc3ccc(NC(=O)C4(C(=O)Nc5ccc(F)cc5)CC4)cc3F)ccnc2cc1OCCCN1CCOCC1 [Foretinib] (partner 0.25 µM)
In short: as §1

MLN4924 + Dasatinib = compound: NS(=O)(=O)OC[C@@H]1C[C@@H](n2ccc3c(N[C@H]4CCc5ccccc54)ncnc32)C[C@@H]1O [MLN4924] + Cc1nc(Nc2ncc(C(=O)Nc3c(C)cccc3Cl)s2)cc(N2CCN(CCO)CC2)n1 [Dasatinib] (partner 0.075 µM)
In short: as §1

Row | Cell Line | relative viability (MLN4924 + Pemetrexed; first compound 0.04 µM) | relative viability (MLN4924 + Pemetrexed; first compound 0.1265 µM) | relative viability (MLN4924 + Pemetrexed; first compound 0.4 µM) | relative viability (MLN4924 + Pemetrexed; first compound 1.265 µM) | relative viability (MLN4924 + Pemetrexed; first compound 4 µM) | relative viability (MLN4924 + Navitoclax; first compound 0.04 µM) | relative viability (MLN4924 + Navitoclax; first compound 0.1265 µM) | relative viability (MLN4924 + Navitoclax; first compound 0.4 µM) | relative viability (MLN4924 + Navitoclax; first compound 1.265 µM) | relative viability (MLN4924 + Navitoclax; first compound 4 µM) | relative viability (MLN4924 + Foretinib; first compound 0.04 µM) | relative viability (MLN4924 + Foretinib; first compound 0.1265 µM) | relative viability (MLN4924 + Foretinib; first compound 0.4 µM) | relative viability (MLN4924 + Foretinib; first compound 1.265 µM) | relative viability (MLN4924 + Foretinib; first compound 4 µM) | relative viability (MLN4924 + Dasatinib; first compound 0.04 µM) | relative viability (MLN4924 + Dasatinib; first compound 0.1265 µM) | relative viability (MLN4924 + Dasatinib; first compound 0.4 µM) | relative viability (MLN4924 + Dasatinib; first compound 1.265 µM) | relative viability (MLN4924 + Dasatinib; first compound 4 µM)
1 | HCC-366 | 0.161 | 0.153 | 0.129 | 0.107 | 0.0292 | 1.06 | 1.09 | 0.353 | 0.241 | 0.0154 | 0.907 | 0.975 | 0.925 | 0.447 | 0.0537 | 0.67 | 0.702 | 0.967 | 0.627 | 0.0684
2 | HCC-827 | 0.278 | 0.271 | 0.266 | 0.176 | 0.17 | 0.925 | 0.747 | 0.492 | 0.275 | 0.237 | 0.993 | 0.591 | 0.568 | 0.238 | 0.144 | 0.483 | 0.608 | 0.771 | 0.265 | 0.187
3 | HOP-62 | 0.235 | 0.175 | 0.0617 | 0.0458 | 0.0811 | 0.553 | 0.238 | 0.171 | 0.111 | 0.0613 | 0.669 | 0.312 | 0.246 | 0.0894 | 0.0942 | 0.887 | 0.742 | 0.427 | 0.0794 | 0.076
4 | LC-2-ad | 0.288 | 0.27 | 0.257 | 0.218 | 0.221 | 0.382 | 0.276 | 0.184 | 0.13 | 0.105 | 0.845 | 0.793 | 0.592 | 0.212 | 0.186 | 0.551 | 0.408 | 0.498 | 0.144 | 0.2
5 | LCLC-97TM1 | 0.147 | 0.18 | 0.0833 | 0.0476 | 0.0536 | 0.277 | 0.281 | 0.139 | 0.134 | 0.109 | 0.97 | 0.424 | 0.69 | 0.127 | 0.123 | 1.01 | 0.683 | 0.767 | 0.113 | 0.104
6 | LK-2 | 0.25 | 0.248 | 0.203 | 0.117 | 0.106 | 0.86 | 0.639 | 0.411 | 0.195 | 0.225 | 1.35 | 0.676 | 0.621 | 0.265 | 0.222 | 0.28 | 0.261 | 0.285 | 0.162 | 0.196
7 | LOU-NH91 | 0.367 | 0.366 | 0.393 | 0.385 | 0.343 | 0.649 | 0.761 | 0.556 | 0.41 | 0.314 | 0.945 | 0.952 | 0.896 | 0.539 | 0.413 | 0.554 | 0.708 | 0.778 | 0.494 | 0.415
8 | LU99A | 0.185 | 0.175 | 0.18 | 0.189 | 0.129 | 0.46 | 0.267 | 0.243 | 0.158 | 0.166 | 0.531 | 0.365 | 0.314 | 0.188 | 0.236 | 0.507 | 0.485 | 0.321 | 0.132 | 0.16
9 | LXF-289 | 0.814 | 0.77 | 0.567 | 0.177 | 0.116 | 0.848 | 0.664 | 0.524 | 0.174 | 0.113 | 0.846 | 0.564 | 0.565 | 0.188 | 0.0965 | 0.215 | 0.203 | 0.251 | 0.0849 | 0.0735
10 | NCI-H23 | 0.74 | 0.842 | 0.421 | 0.256 | 0.213 | 0.759 | 0.69 | 0.281 | 0.218 | 0.148 | 0.968 | 0.839 | 0.767 | 0.285 | 0.184 | 0.722 | 0.785 | 0.681 | 0.335 | 0.208
11 | NCI-H322M | 0.719 | 0.776 | 0.549 | 0.3 | 0.422 | 1.3 | 1.22 | 0.844 | 0.338 | 0.382 | 1.12 | 1.22 | 0.801 | 0.284 | 0.357 | 0.311 | 0.655 | 0.693 | 0.27 | 0.289
12 | NCI-H441 | 0.248 | 0.222 | 0.234 | 0.139 | 0.187 | 0.708 | 0.489 | 0.357 | 0.138 | 0.173 | 0.923 | 0.79 | 0.515 | 0.238 | 0.183 | 0.603 | 0.47 | 0.337 | 0.212 | 0.141
13 | NCI-H460 | 0.0658 | 0.0623 | 0.0708 | 0.059 | 0.0457 | 1.01 | 1.04 | 0.431 | 0.0395 | 0.024 | 1.01 | 1.09 | 0.855 | 0.297 | 0.0485 | 0.495 | 0.657 | 0.849 | 0.377 | 0.0538
14 | NCI-H520 | 0.489 | 0.368 | 0.271 | 0.193 | 0.172 | 0.629 | 0.583 | 0.298 | 0.227 | 0.223 | 0.732 | 0.502 | 0.409 | 0.305 | 0.205 | 0.216 | 0.225 | 0.253 | 0.171 | 0.173
15 | NCI-H596 | 0.49 | 0.511 | 0.405 | 0.496 | 0.437 | 0.969 | 0.99 | 0.62 | 0.68 | 0.28 | 0.847 | 1.04 |  | 0.65 | 0.58 | 0.623 | 0.594 |  | 0.644 | 0.744
16 | NCI-H647 | 0.156 | 0.119 | 0.0763 | 0.0395 | 0.0465 | 0.976 | 0.424 | 0.159 | 0.0575 | 0.0744 | 0.818 | 0.848 | 0.188 | 0.0561 | 0.0661 | 0.235 | 0.195 | 0.113 | 0.0353 | 0.0361
